What was measured:
Type in all cases: in vivo
[1] = tested on: barnyardgrass (Echinochloa crus-galli); assay: Test A preemergence, barnyardgrass; settings: 0 to 100 scale, 0 no effect, 100 complete control
Description: (§1) Seeds of plant species selected from barnyardgrass (Echinochloa crus-galli), crabgrass, large (large crabgrass, Digitaria sanguinalis), kochia (Kochia scoparia), ragweed (common ragweed, Ambrosia elatior), morningglory (Ipomoea spp.), velvetleaf (Abutilon theophrasti), ryegrass, Italian (Italian ryegrass, Lolium multiflorum), foxtail, giant (giant foxtail, Setaria faberii), wheat (Triticum aestivum), corn (Zea mays), and pigweed (Amaranthus retroflexus), were planted into a blend of loam soil and sand and treated preemergence with a directed soil spray using test chemicals formulated in a non-phytotoxic solvent mixture which included a surfactant. At the same time, plants selected from these crop and weed species and also blackgrass (Alopecurus myosuroides), and galium (catchweed bedstraw, Galium aparine), were planted in pots containing the same blend of loam soil and sand and treated with postemergence applications of test chemicals formulated in the same manner. Plants ranged in height from 2 to 10 cm and were in the one- to two-leaf stage for the postemergence treatment. Treated plants and untreated controls were maintained in a greenhouse for approximately 10 d, after which time all treated plants were compared to untreated controls and visually evaluated for injury. Plant response ratings, summarized in Table A, are based on a 0 to 100 scale where 0 is no effect and 100 is complete control. A dash (-) response means no test result.

[2] = tested on: kochia (Kochia scoparia); assay: Test A preemergence, kochia; settings: 0 to 100 scale, 0 no effect, 100 complete control
Description: as §1

[3] = tested on: ragweed (common ragweed, Ambrosia elatior); assay: Test A preemergence, ragweed; settings: 0 to 100 scale, 0 no effect, 100 complete control
Description: as §1

[4] = tested on: ryegrass, Italian (Italian ryegrass, Lolium multiflorum); assay: Test A preemergence, ryegrass, Italian; settings: 0 to 100 scale, 0 no effect, 100 complete control
Description: as §1

[5] = tested on: foxtail, giant (giant foxtail, Setaria faberii); assay: Test A preemergence, foxtail, giant; settings: 0 to 100 scale, 0 no effect, 100 complete control
Description: as §1

[6] = tested on: pigweed (Amaranthus retroflexus); assay: Test A preemergence, pigweed; settings: 0 to 100 scale, 0 no effect, 100 complete control
Description: as §1

[7] = tested on: barnyardgrass (Echinochloa crus-galli); assay: Test A postemergence, barnyardgrass; settings: 0 to 100 scale, 0 no effect, 100 complete control
Description: as §1

[8] = tested on: kochia (Kochia scoparia); assay: Test A postemergence, kochia; settings: 0 to 100 scale, 0 no effect, 100 complete control
Description: as §1

[9] = tested on: ragweed (common ragweed, Ambrosia elatior); assay: Test A postemergence, ragweed; settings: 0 to 100 scale, 0 no effect, 100 complete control
Description: as §1

[10] = tested on: ryegrass, Italian (Italian ryegrass, Lolium multiflorum); assay: Test A postemergence, ryegrass, Italian; settings: 0 to 100 scale, 0 no effect, 100 complete control
Description: as §1

[11] = tested on: foxtail, giant (giant foxtail, Setaria faberii); assay: Test A postemergence, foxtail, giant; settings: 0 to 100 scale, 0 no effect, 100 complete control
Description: as §1

[12] = tested on: wheat (Triticum aestivum); assay: Test A postemergence, wheat; settings: 0 to 100 scale, 0 no effect, 100 complete control
Description: as §1

[13] = tested on: corn (Zea mays); assay: Test A postemergence, corn; settings: 0 to 100 scale, 0 no effect, 100 complete control
Description: as §1

[14] = tested on: pigweed (Amaranthus retroflexus); assay: Test A postemergence, pigweed; settings: 0 to 100 scale, 0 no effect, 100 complete control
Description: as §1

[15] = tested on: blackgrass (Alopecurus myosuroides); assay: Test A postemergence, blackgrass; settings: 0 to 100 scale, 0 no effect, 100 complete control
Description: as §1

[16] = tested on: galium (catchweed bedstraw, Galium aparine); assay: Test A postemergence, galium; settings: 0 to 100 scale, 0 no effect, 100 complete control
Description: as §1

[17] = tested on: barnyardgrass (Echinochloa crus-galli); assay: Test B flooded paddy test, barnyardgrass; settings: Flood, scale 0 to 100 (0 no effect, 100 complete control), 13 to 15 d
Protocol: (§2) Plant species in the flooded paddy test selected from rice (Oryza sativa), sedge, umbrella (small-flower umbrella sedge, Cyperus difformis), ducksalad (Heteranthera limosa), and barnyardgrass (Echinochloa crus-galli) were grown to the 2-leaf stage for testing. At time of treatment, test pots were flooded to 3 cm above the soil surface, treated by application of test compounds directly to the paddy water, and then maintained at that water depth for the duration of the test. Treated plants and controls were maintained in a greenhouse for 13 to 15 d, after which time all species were compared to controls and visually evaluated. Plant response ratings, summarized in Table B, are based on a scale of 0 to 100 where 0 is no effect and 100 is complete control. A dash (-) response means no test result.

[18] = tested on: ducksalad (Heteranthera limosa); assay: Test B flooded paddy test, ducksalad; settings: Flood, scale 0 to 100 (0 no effect, 100 complete control), 13 to 15 d
Protocol: as §2

[19] = tested on: rice (Oryza sativa); assay: Test B flooded paddy test, rice; settings: Flood, scale 0 to 100 (0 no effect, 100 complete control), 13 to 15 d
Protocol: as §2

[20] = tested on: sedge, umbrella (small-flower umbrella sedge, Cyperus difformis); assay: Test B flooded paddy test, sedge, umbrella; settings: Flood, scale 0 to 100 (0 no effect, 100 complete control), 13 to 15 d
Protocol: as §2

O=C1NCC(c2ccc(F)c(F)c2)N1C(=O)Nc1cccc(F)c1F (stereo not drawn) [Compound 11, N-(2,3-difluorophenyl)-5-(3,4-difluorophenyl)-2-oxo-1-imidazolidinecarboxamide]
Plant response rating, Barnyardgrass ([1]; 125 g ai/ha): 0
Plant response rating, Barnyardgrass ([1]; 500 g ai/ha): 40
Plant response rating, Kochia ([2]; 125 g ai/ha): 0
Plant response rating, Kochia ([2]; 500 g ai/ha): 30
Plant response rating, Ragweed ([3]; 125 g ai/ha): 0
Plant response rating, Ragweed ([3]; 500 g ai/ha): 0
Plant response rating, Ryegrass, Italian ([4]; 125 g ai/ha): 0
Plant response rating, Ryegrass, Italian ([4]; 500 g ai/ha): 30
Plant response rating, Foxtail, Giant ([5]; 125 g ai/ha): 0
Plant response rating, Foxtail, Giant ([5]; 500 g ai/ha): 80
Plant response rating, Pigweed ([6]; 125 g ai/ha): 0
Plant response rating, Pigweed ([6]; 500 g ai/ha): 0
Plant response rating, Barnyardgrass ([7]; 125 g ai/ha): 0
Plant response rating, Barnyardgrass ([7]; 500 g ai/ha): 20
Plant response rating, Kochia ([8]; 125 g ai/ha): 0
Plant response rating, Kochia ([8]; 500 g ai/ha): 0
Plant response rating, Ragweed ([9]; 125 g ai/ha): 0
Plant response rating, Ragweed ([9]; 500 g ai/ha): 0
Plant response rating, Ryegrass, Italian ([10]; 125 g ai/ha): 0
Plant response rating, Ryegrass, Italian ([10]; 500 g ai/ha): 0
Plant response rating, Foxtail, Giant ([11]; 125 g ai/ha): 0
Plant response rating, Foxtail, Giant ([11]; 500 g ai/ha): 30
Plant response rating, Wheat ([12]; 125 g ai/ha): 0
Plant response rating, Wheat ([12]; 500 g ai/ha): 0
Plant response rating, Corn ([13]; 125 g ai/ha): 0
Plant response rating, Corn ([13]; 500 g ai/ha): 0
Plant response rating, Pigweed ([14]; 125 g ai/ha): 0
Plant response rating, Pigweed ([14]; 500 g ai/ha): 0
Plant response rating, Blackgrass ([15]; 125 g ai/ha): 0
Plant response rating, Blackgrass ([15]; 500 g ai/ha): 0
Plant response rating, Galium ([16]; 125 g ai/ha): 0
Plant response rating, Galium ([16]; 500 g ai/ha): 0
Plant response rating, Barnyardgrass ([17]; 500 g ai/ha): 0
Plant response rating, Ducksalad ([18]; 500 g ai/ha): 60
Plant response rating, Rice ([19]; 500 g ai/ha): 0
Plant response rating, Sedge, Umbrella ([20]; 500 g ai/ha): 0

CN1CC(c2ccc(C(F)(F)F)cc2)N(C(=O)Nc2ccc(F)cc2F)C1=O (stereo not drawn) [Compound 15]
Plant response rating, Barnyardgrass ([1]; 31 g ai/ha): 0
Plant response rating, Barnyardgrass ([1]; 125 g ai/ha): 0
Plant response rating, Kochia ([2]; 31 g ai/ha): 0
Plant response rating, Kochia ([2]; 125 g ai/ha): 0
Plant response rating, Ragweed ([3]; 31 g ai/ha): 0
Plant response rating, Ragweed ([3]; 125 g ai/ha): 0
Plant response rating, Ryegrass, Italian ([4]; 31 g ai/ha): 0
Plant response rating, Ryegrass, Italian ([4]; 125 g ai/ha): 0
Plant response rating, Foxtail, Giant ([5]; 31 g ai/ha): 0
Plant response rating, Foxtail, Giant ([5]; 125 g ai/ha): 0
Plant response rating, Pigweed ([6]; 31 g ai/ha): 0
Plant response rating, Pigweed ([6]; 125 g ai/ha): 0
Plant response rating, Barnyardgrass ([7]; 31 g ai/ha): 0
Plant response rating, Barnyardgrass ([7]; 125 g ai/ha): 0
Plant response rating, Kochia ([8]; 31 g ai/ha): 0
Plant response rating, Kochia ([8]; 125 g ai/ha): 0
Plant response rating, Ragweed ([9]; 31 g ai/ha): 0
Plant response rating, Ragweed ([9]; 125 g ai/ha): 0
Plant response rating, Ryegrass, Italian ([10]; 31 g ai/ha): 0
Plant response rating, Ryegrass, Italian ([10]; 125 g ai/ha): 0
Plant response rating, Foxtail, Giant ([11]; 31 g ai/ha): 0
Plant response rating, Foxtail, Giant ([11]; 125 g ai/ha): 0
Plant response rating, Wheat ([12]; 31 g ai/ha): 0
Plant response rating, Wheat ([12]; 125 g ai/ha): 0
Plant response rating, Corn ([13]; 31 g ai/ha): 0
Plant response rating, Corn ([13]; 125 g ai/ha): 0
Plant response rating, Pigweed ([14]; 31 g ai/ha): 0
Plant response rating, Pigweed ([14]; 125 g ai/ha): 0
Plant response rating, Blackgrass ([15]; 31 g ai/ha): 0
Plant response rating, Blackgrass ([15]; 125 g ai/ha): 0
Plant response rating, Galium ([16]; 31 g ai/ha): 0
Plant response rating, Galium ([16]; 125 g ai/ha): 0
Plant response rating, Barnyardgrass ([17]; 250 g ai/ha): 10
Plant response rating, Ducksalad ([18]; 250 g ai/ha): 60
Plant response rating, Rice ([19]; 250 g ai/ha): 0
Plant response rating, Sedge, Umbrella ([20]; 250 g ai/ha): 0

O=C1NCC(c2ccc(F)c(F)c2)N1C(=O)Nc1ccccc1C(F)(F)F (stereo not drawn) [Compound 10]
Plant response rating, Barnyardgrass ([1]; 125 g ai/ha): 0
Plant response rating, Barnyardgrass ([1]; 500 g ai/ha): 0
Plant response rating, Kochia ([2]; 125 g ai/ha): 0
Plant response rating, Kochia ([2]; 500 g ai/ha): 0
Plant response rating, Ragweed ([3]; 125 g ai/ha): 0
Plant response rating, Ragweed ([3]; 500 g ai/ha): 0
Plant response rating, Ryegrass, Italian ([4]; 125 g ai/ha): 0
Plant response rating, Ryegrass, Italian ([4]; 500 g ai/ha): 0
Plant response rating, Foxtail, Giant ([5]; 125 g ai/ha): 20
Plant response rating, Foxtail, Giant ([5]; 500 g ai/ha): 60
Plant response rating, Pigweed ([6]; 125 g ai/ha): 0
Plant response rating, Pigweed ([6]; 500 g ai/ha): 0
Plant response rating, Barnyardgrass ([7]; 125 g ai/ha): 0
Plant response rating, Barnyardgrass ([7]; 500 g ai/ha): 0
Plant response rating, Kochia ([8]; 125 g ai/ha): 0
Plant response rating, Kochia ([8]; 500 g ai/ha): 0
Plant response rating, Ragweed ([9]; 125 g ai/ha): 0
Plant response rating, Ragweed ([9]; 500 g ai/ha): 0
Plant response rating, Ryegrass, Italian ([10]; 125 g ai/ha): 0
Plant response rating, Ryegrass, Italian ([10]; 500 g ai/ha): 0
Plant response rating, Foxtail, Giant ([11]; 125 g ai/ha): 0
Plant response rating, Foxtail, Giant ([11]; 500 g ai/ha): 40
Plant response rating, Wheat ([12]; 125 g ai/ha): 0
Plant response rating, Wheat ([12]; 500 g ai/ha): 0
Plant response rating, Corn ([13]; 125 g ai/ha): 0
Plant response rating, Corn ([13]; 500 g ai/ha): 0
Plant response rating, Pigweed ([14]; 125 g ai/ha): 0
Plant response rating, Pigweed ([14]; 500 g ai/ha): 0
Plant response rating, Blackgrass ([15]; 125 g ai/ha): 0
Plant response rating, Blackgrass ([15]; 500 g ai/ha): 0
Plant response rating, Galium ([16]; 125 g ai/ha): 0
Plant response rating, Galium ([16]; 500 g ai/ha): 0
Plant response rating, Barnyardgrass ([17]; 500 g ai/ha): 0
Plant response rating, Ducksalad ([18]; 500 g ai/ha): 0
Plant response rating, Rice ([19]; 500 g ai/ha): 0
Plant response rating, Sedge, Umbrella ([20]; 500 g ai/ha): 0
